# Assay results as given in patent publication US20120004199A1, “SCAFFOLDS” (priority 2009, published 2012).
# Legend:
# NF-κB/p65 = NF-κB/p65 activation immunolabelling in 2D fibroblast cultures stimulated with LPS or TNF-α; assay type: cell-based, human; conditions: for effect on LPS induced NF-κB activation / effect on TNF induced NF-κB activation: 10^−4 and 10^−3M; for effect on LPS induced NF-κB activation: LPS 100 ng/mL; for effect on TNF induced NF-κB activation: TNF-α 1000 U/mL
# Method: LPS from E. coli serotype O111:B4 (Sigma-Aldrich) at 100 ng/mL or TNF-α (Sigma-Aldrich) at 1000 U/mL was used as a positive control for activation of NF-κB in fibroblasts. In preliminary experiments, Ibuprofen (10^−3 and 10^−4 M, sodium salt and isomer mixture; Sigma-Aldrich, UK) was used to downregulate NF-κB activation. Then the 10% Ibuprofen loaded PLGA scaffolds (75/25, 50/50 and a 1:1 blend of these two) were examined. Negative controls were produced by incubating cells in normal DMEM. All experiments were performed in triplicate.
# Following the Ibuprofen treatments, monolayers were washed in PBS and the cells were fixed in 10% formalin (500 μL per well) for 30 minutes. Cell monolayers were washed a further three times in PBS, prior to cell permeabilisation with 0.1% Triton X100 for 20 minutes. Subsequently, cells were washed three times with PBS. Unreactive binding sites were blocked by adding a 5% dried milk powder solution to each well for 1 hour. A further three washes in PBS were performed prior to incubation with the first antibody solution. The first antibody (rabbit polyclonal antihuman IgG NF-κB p65 C-20, Santa Cruz Biotechnology Inc., CA) was added at a concentration of 1:100 in 1% PBS-dried milk powder. Cells were incubated in the antibody solution at 4° C. for 18 hours. The cells were washed three more times in PBS. Afterwards, cells were incubated with biotinylated goat anti-rabbit (1:1000) (Vector Laboratories, CA) in 1% PBS-milk powder. The cells were then washed a further three times in PBS. Streptavidin-FITC (Vector Laboratories, CA) conjugate was then added to the wells at a concentration of 1:100 in PBS. A further three washes in PBS were performed. After this time, the fluorescent staining were visualised using an AXON image express system (Axon Instruments/Molecular Devices, Union City, Calif.). Briefly, fluorescence micrographs of immunolabelled samples were taken using epifluorescent illumination at λex 495 nm λem 515 nm (for FITC visualisation); λex 358 nm λem 461 nm (for DAPI visualisation). DAPI fluorescence was used to identify nuclear position. The boundary between nucleus and cytoplasm was delimited by analysis software (ImageXpress Console 1.0) using DAPI micrographs in a sample of at least 100 cellular counts per visual field. Within the defined region, the intensity of FITC (NF-κB/p65) labelling was used to calculate activation for each micrograph and sample. […] The analysis of the micrographs was done in triplicate.
# human fibroblast (HDF) = assay: MTT-ESTA assay of cell metabolic activity, 2D HDF cultures; assay type: cell-based; conditions: for % Viability: 24 h exposure, HDF; for concentration showing a cytotoxic response: fibroblast viability
# Method: (§1) Normal human fibroblasts were isolated and cultured as described previously (Ralston et al., 1997). […] Keratinocytes were cultured in Dulbecco's modified Eagle's medium (DMEM) supplemented with 10% (v/v) foetal calf serum (FCS), 2 mM glutamine, 0.625 μg/ml amphotericin B, 100 IU/ml penicillin and 100 μg/ml streptomycin.
# [1] = as above; assay type: cell-based, human; conditions: human, normal human dermal fibroblasts (HDF), 2D monolayer culture, 24 h exposure, HDF
# Method: as §1
Compound,effect on LPS induced NF-κB activation (NF-κB/p65),effect on TNF induced NF-κB activation (NF-κB/p65),% Viability (human fibroblast (HDF); Treatment 10^−2),% Viability (human fibroblast (HDF); Treatment 10^−3),% Viability (human fibroblast (HDF); Treatment 10^−4),% Viability (human fibroblast (HDF); Treatment 10^−5),% Viability (human fibroblast (HDF); Treatment 10^−6),concentration showing a cytotoxic response (human fibroblast (HDF)),viability at 24 h ([1]; Treatment 10^−3),viability at 24 h ([1]; Treatment 10^−4),viability at 24 h ([1]; Treatment 10^−5),viability at 24 h ([1]; Treatment 10^−6),"activation of NF-κB (NF-κB/p65; stimulus alone, LPS 100 ng/mL or TNF-α 1000 U/mL)"
"CC(C)Cc1ccc(C(C)C(=O)O)cc1 (racemic) [Ibuprofen isomer mixture, 2-(4-isobutylphenyl)propionic acid]",significantly reducing the response,significantly reducing the response,7.20%,101.11%,108.56%,111.80%,109.43%,10^−2 M,–,–,–,–,–
CC(C)Cc1ccc(C(C)C(=O)[O-])cc1.[Na+] (centres unmarked) [Ibuprofen Sodium Salt],significantly reducing the response,significantly reducing the response,38.25%,–,–,–,–,10^−2 M,90.3%,98.2%,100%,102%,–
TNF-α,–,–,–,–,–,–,–,–,–,–,–,–,80%
